Assay results published in patent US20200199102A1, “COMPOUNDS THAT PARTICIPATE IN COOPERATIVE BINDING AND USES THEREOF” (Revolution Medicines, Inc., priority 2017, published 2020).
Where a SMILES comes first, the peptide text is derived from it. [ ]: non-standard residue; d: D form. MeBmt = C/C=C/C[C@@H](C)[C@@H](O)[C@H](NC)C(=O)O; NMeY = CN[C@@H](Cc1ccc(O)cc1)C(=O)O; NMeF = CN[C@@H](Cc1ccccc1)C(=O)O; NMeI = CC[C@H](C)[C@H](NC)C(=O)O; NMeT = CN[C@H](C(=O)O)[C@@H](C)O; NMeL = CN[C@@H](CC(C)C)C(=O)O; dNMeV = CN[C@@H](C(=O)O)C(C)C; NMeNva = CCC[C@H](NC)C(=O)O; NMeV = CN[C@H](C(=O)O)C(C)C; NMeA = CN[C@@H](C)C(=O)O; dNMeA = CN[C@H](C)C(=O)O; Abu = CC[C@H](N)C(=O)O; Sar = CNCC(=O)O

Molecular target: T1, Cyclophilin A (Homo sapiens, UniProt P62937)
T1 construct: made in house
Test: AlphaLISA inhibition of binding of biotinylated Cyclosporin A to FLAG tagged Cyclophilin A
Details: for % signal: AlphaLISA signal; for % signal / % inhibition of CsA binding to Cyclophilin A: test concentration not given; for IC50: read-out: IC50 value of CsA binding to Cyclophilin A
How it was run: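 Inhibition of biotin-CsA binding to FLAG-tagged Cyclophilin A read by AlphaLISA (ex 680, em 615 nm). Working stocks were 6 nM biotinylated CsA and 25 nM FLAG-CypA; beads and compound were combined first for 30 min, then protein added for 60 min, all at room temperature in the dark, with DMSO and cyclosporin A controls.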

T1 sequence (P62937 whole entry, species assumed): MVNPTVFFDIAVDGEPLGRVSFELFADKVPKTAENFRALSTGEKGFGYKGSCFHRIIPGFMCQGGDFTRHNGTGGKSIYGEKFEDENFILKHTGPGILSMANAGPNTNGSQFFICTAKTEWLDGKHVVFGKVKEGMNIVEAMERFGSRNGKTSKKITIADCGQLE

Row | % signal | IC50 | % inhibition of CsA binding to Cyclophilin A | Compound
1 | 0.90% | < 2 µM | 99.10% | C/C=C/C[C@@H](C)[C@@H](O)[C@H]1C(=O)N[C@@H](CC)C(=O)N(C)CC(=O)N(C)[C@@H](CCC)C(=O)N[C@@H](C(C)C)C(=O)N(C)[C@@H](CC(C)C)C(=O)N[C@@H](CC(C)C)C(=O)N[C@H](C)C(=O)N(C)[C@@H](CC(C)C)C(=O)N(C)[C@@H](CC(C)C)C(=O)N(C)[C@@H](C(C)C)C(=O)N1C [Compound C54] (cyclo([MeBmt][Abu][Sar][NMeNva]V[NMeL]L[dA][NMeL][NMeL][NMeV]))
2 | 32.88% | < 2 µM | 67.12% | C/C=C/C[C@@H](C)[C@@H](O)[C@H]1C(=O)N[C@@H](CC)C(=O)N(C)CC(=O)N(C)[C@H](C(C)C)C(=O)N[C@@H](C(C)C)C(=O)N(C)[C@@H](CC(C)C)C(=O)N[C@@H](CC(C)C)C(=O)N[C@H](C)C(=O)N(C)[C@@H](CC(C)C)C(=O)N(C)[C@@H](CC(C)C)C(=O)N(C)[C@@H](C(C)C)C(=O)N1C [Compound C55] (cyclo([MeBmt][Abu][Sar][dNMeV]V[NMeL]L[dA][NMeL][NMeL][NMeV]))
3 | 2.44% | < 2 µM | 97.56% | C/C=C/C[C@@H](C)[C@@H](O)[C@H]1C(=O)N[C@@H](CC)C(=O)N(C)CC(=O)N(C)[C@@H](CCCC)C(=O)N[C@@H](C(C)C)C(=O)N(C)[C@@H](CC(C)C)C(=O)N[C@@H](CC(C)C)C(=O)N[C@H](C)C(=O)N(C)[C@@H](CC(C)C)C(=O)N(C)[C@@H](CC(C)C)C(=O)N(C)[C@@H](C(C)C)C(=O)N1C [Compound C56]
4 | 11.76% | < 2 µM | 88.24% | C/C=C/C[C@@H](C)[C@@H](O)[C@H]1C(=O)N[C@@H](CC)C(=O)N(C)CC(=O)N(C)[C@H](C)C(=O)N[C@@H](CC(C)C)C(=O)N(C)[C@@H](CC(C)C)C(=O)N[C@@H](CC(C)C)C(=O)N[C@H](C)C(=O)N(C)[C@@H](CC(C)C)C(=O)N(C)[C@@H](CC(C)C)C(=O)N(C)[C@@H](C(C)C)C(=O)N1C [Compound C59] (cyclo([MeBmt][Abu][Sar][dNMeA]L[NMeL]L[dA][NMeL][NMeL][NMeV]))
5 | 27.12% | < 2 µM | 72.88% | C/C=C/C[C@@H](C)[C@@H](O)[C@H]1C(=O)N[C@@H](CC)C(=O)N(C)CC(=O)N(C)[C@@H](CC(C)C)C(=O)N[C@@H](CC(C)C)C(=O)N(C)[C@@H](CC(C)C)C(=O)N[C@@H](CC(C)C)C(=O)N[C@H](C)C(=O)N(C)[C@@H](CC(C)C)C(=O)N(C)[C@@H](CC(C)C)C(=O)N(C)[C@@H](C(C)C)C(=O)N1C [Compound C62] (cyclo([MeBmt][Abu][Sar][NMeL]L[NMeL]L[dA][NMeL][NMeL][NMeV]))

Further lines, the molecule ahead of its results:

Row | Compound | % signal | IC50 | % inhibition of CsA binding to Cyclophilin A
6 | C/C=C/C[C@@H](C)[C@@H](O)[C@H]1C(=O)N[C@@H](CC)C(=O)N(C)CC(=O)N(C)[C@@H]([C@@H](C)CC)C(=O)N[C@@H](CC(C)C)C(=O)N(C)[C@@H](CC(C)C)C(=O)N[C@@H](CC(C)C)C(=O)N[C@H](C)C(=O)N(C)[C@@H](CC(C)C)C(=O)N(C)[C@@H](CC(C)C)C(=O)N(C)[C@@H](C(C)C)C(=O)N1C [Compound C57] (cyclo([MeBmt][Abu][Sar][NMeI]L[NMeL]L[dA][NMeL][NMeL][NMeV])) | 0.15% | < 2 µM | 99.85%
7 | C/C=C/C[C@@H](C)[C@@H](O)[C@H]1C(=O)N[C@@H](CC)C(=O)N(C)CC(=O)N(C)[C@@H](C)C(=O)N[C@@H](CC(C)C)C(=O)N(C)[C@@H](CC(C)C)C(=O)N[C@@H](CC(C)C)C(=O)N[C@H](C)C(=O)N(C)[C@@H](CC(C)C)C(=O)N(C)[C@@H](CC(C)C)C(=O)N(C)[C@@H](C(C)C)C(=O)N1C [Compound C58] (cyclo([MeBmt][Abu][Sar][NMeA]L[NMeL]L[dA][NMeL][NMeL][NMeV])) | 3.28% | < 2 µM | 96.72%
8 | C/C=C/C[C@@H](C)[C@@H](O)[C@H]1C(=O)N[C@@H](CC)C(=O)N(C)CC(=O)N(C)[C@@H](Cc2ccccc2)C(=O)N[C@@H](CC(C)C)C(=O)N(C)[C@@H](CC(C)C)C(=O)N[C@@H](CC(C)C)C(=O)N[C@H](C)C(=O)N(C)[C@@H](CC(C)C)C(=O)N(C)[C@@H](CC(C)C)C(=O)N(C)[C@@H](C(C)C)C(=O)N1C [Compound C60] (cyclo([MeBmt][Abu][Sar][NMeF]L[NMeL]L[dA][NMeL][NMeL][NMeV])) | 52.68% | < 2 µM | 47.32%
9 | C/C=C/C[C@@H](C)[C@@H](O)[C@H]1C(=O)N[C@@H](CC)C(=O)N(C)CC(=O)N(C)CC(=O)N[C@@H](CC(C)C)C(=O)N(C)[C@@H](CC(C)C)C(=O)N[C@@H](CC(C)C)C(=O)N[C@H](C)C(=O)N(C)[C@@H](CC(C)C)C(=O)N(C)[C@@H](CC(C)C)C(=O)N(C)[C@@H](C(C)C)C(=O)N1C [Compound C61] (cyclo([MeBmt][Abu][Sar][Sar]L[NMeL]L[dA][NMeL][NMeL][NMeV])) | 14.38% | < 2 µM | 85.62%
10 | C/C=C/C[C@@H](C)[C@@H](O)[C@H]1C(=O)N[C@@H](CC)C(=O)N(C)CC(=O)N(C)[C@@H]([C@@H](C)O)C(=O)N[C@@H](CC(C)C)C(=O)N(C)[C@@H](CC(C)C)C(=O)N[C@@H](CC(C)C)C(=O)N[C@H](C)C(=O)N(C)[C@@H](CC(C)C)C(=O)N(C)[C@@H](CC(C)C)C(=O)N(C)[C@@H](C(C)C)C(=O)N1C [Compound C63] (cyclo([MeBmt][Abu][Sar][NMeT]L[NMeL]L[dA][NMeL][NMeL][NMeV])) | 4.64% | < 2 µM | 95.36%
11 | C/C=C/C[C@@H](C)[C@@H](O)[C@H]1C(=O)N[C@@H](CC)C(=O)N(C)CC(=O)N(C)[C@@H](Cc2ccc(O)cc2)C(=O)N[C@@H](CC(C)C)C(=O)N(C)[C@@H](CC(C)C)C(=O)N[C@@H](CC(C)C)C(=O)N[C@H](C)C(=O)N(C)[C@@H](CC(C)C)C(=O)N(C)[C@@H](CC(C)C)C(=O)N(C)[C@@H](C(C)C)C(=O)N1C [Compound C64] (cyclo([MeBmt][Abu][Sar][NMeY]L[NMeL]L[dA][NMeL][NMeL][NMeV])) | 28.50% | < 2 µM | 71.50%
12 | C/C=C/C[C@@H](C)[C@@H](O)[C@H]1C(=O)N[C@@H](CC)C(=O)N(C)CC(=O)N(C)[C@@H](C(C)C)C(=O)N[C@@H](CC(C)C)C(=O)N(C)[C@@H](CC(C)C)C(=O)N[C@@H](CC(C)C)C(=O)N[C@H](C)C(=O)N(C)[C@@H](CC(C)C)C(=O)N(C)[C@@H](CC(C)C)C(=O)N(C)[C@@H](C(C)C)C(=O)N1C [Compound C65] (cyclo([MeBmt][Abu][Sar][NMeV]L[NMeL]L[dA][NMeL][NMeL][NMeV])) | 0.27% | < 2 µM | 99.73%
